Assays:
Test in all cases: cells
[1] = tested on: A2058; conditions: Homo sapiens, A2058, 6 h, read-out: AZD5991 6h EC50
Experimental: (§1) Cells were plated at 3000 cells/well in 384-well white plates in corresponding cell growth media. […] Caspase-3/7 activation was subsequently determined using a Caspase-Glo 3/7 Reagent (Promega) and viability was assayed using the CellTiter-Glo Reagent (Promega) as described in manufacturer’s instructions. Dose–response curves for caspase-3/7 activation and viability were plotted and analyzed (including EC50 and GI50 determination) using GraphPad Prism. Percentage of caspase activation was calculated against the maximum caspase activation value (100%) obtained with a proprietary cell kill control.

[2] = tested on: BT549; conditions: Homo sapiens, BT-549, 6 h, read-out: AZD5991 6h EC50
Experimental: as §1

[3] = tested on: FaDu; conditions: Homo sapiens, 6 h, read-out: AZD5991 6h EC50
Experimental: as §1

[4] = tested on: G361; conditions: Homo sapiens, G-361, 6 h, read-out: AZD5991 6h EC50
Experimental: as §1

[5] = tested on: H1395; conditions: Homo sapiens, NCI-H1395, 6 h, read-out: AZD5991 6h EC50
Experimental: as §1

[6] = tested on: H2286; conditions: Homo sapiens, NCI-H2286, 6 h, read-out: AZD5991 6h EC50
Experimental: as §1

[7] = tested on: H345; conditions: Homo sapiens, NCI-H345, 6 h, read-out: AZD5991 6h EC50
Experimental: as §1

[8] = tested on: HCC1187; conditions: Homo sapiens, HCC1187, 6 h, read-out: AZD5991 6h EC50
Experimental: as §1

[9] = tested on: HL60; conditions: Homo sapiens, HL-60, 6 h, read-out: AZD5991 6h EC50
Experimental: as §1

[10] = tested on: HMCB; conditions: Homo sapiens, 6 h, read-out: AZD5991 6h EC50
Experimental: as §1

[11] = tested on: KG1a; conditions: Homo sapiens, KG-1a, 6 h, read-out: AZD5991 6h EC50
Experimental: as §1

[12] = tested on: KMS11; conditions: Homo sapiens, KMS-11, 6 h, read-out: AZD5991 6h EC50
Experimental: as §1

[13] = tested on: KMS12BM; conditions: Homo sapiens, KMS-12-BM, 6 h, read-out: AZD5991 6h EC50
Experimental: as §1

[14] = tested on: KMS26; conditions: KMS-26, 6 h, read-out: AZD5991 6h EC50
Experimental: as §1

[15] = tested on: Karpas422; conditions: Homo sapiens, KARPAS-422, 6 h, read-out: AZD5991 6h EC50
Experimental: as §1

[16] = tested on: Kasumi3; conditions: Kasumi-3, 6 h, read-out: AZD5991 6h EC50
Experimental: as §1

[17] = tested on: MINO; conditions: Homo sapiens, 6 h, read-out: AZD5991 6h EC50
Experimental: as §1

[18] = tested on: MM1R; conditions: MM.1R, 6 h, read-out: AZD5991 6h EC50
Experimental: as §1

[19] = tested on: MM1S; conditions: Homo sapiens, MM1.S, 6 h, read-out: AZD5991 6h EC50
Experimental: as §1

[20] = tested on: OCIAML2; conditions: Homo sapiens, OCI-AML2, 6 h, read-out: AZD5991 6h EC50
Experimental: as §1

[21] = tested on: OCILY10; conditions: Homo sapiens, OCI-Ly10, 6 h, read-out: AZD5991 6h EC50
Experimental: as §1

[22] = tested on: OCILY19; conditions: Homo sapiens, OCI-LY19, 6 h, read-out: AZD5991 6h EC50
Experimental: as §1

[23] = tested on: OVCAR3; conditions: Homo sapiens, OVCAR-3, 6 h, read-out: AZD5991 6h EC50
Experimental: as §1

[24] = tested on: SKBR3; conditions: Homo sapiens, SK-BR-3, 6 h, read-out: AZD5991 6h EC50
Experimental: as §1

[25] = tested on: SKMEL3; conditions: Homo sapiens, SK-MEL3, 6 h, read-out: AZD5991 6h EC50
Experimental: as §1

[26] = tested on: Sudhl4; conditions: Homo sapiens, SU-DHL-4, 6 h, read-out: AZD5991 6h EC50
Experimental: as §1

[27] = tested on: Sudhl5; conditions: Homo sapiens, SU-DHL-5, 6 h, read-out: AZD5991 6h EC50
Experimental: as §1

[28] = tested on: Sudhl6; conditions: Homo sapiens, SU-DHL-6, 6 h, read-out: AZD5991 6h EC50
Experimental: as §1

[29] = tested on: T47D; conditions: Homo sapiens, 6 h, read-out: AZD5991 6h EC50
Experimental: as §1

[30] = tested on: THP-1; conditions: Homo sapiens, THP-1, 6 h, read-out: AZD5991 6h EC50
Experimental: as §1

[31] = tested on: TMD8; conditions: Homo sapiens, TMD8, 6 h, read-out: AZD5991 6h EC50
Experimental: as §1

[32] = tested on: U2932; conditions: Homo sapiens, U2932, 6 h, read-out: AZD5991 6h EC50
Experimental: as §1

[33] = tested on: VAL; conditions: 6 h, read-out: AZD5991 6h EC50
Experimental: as §1

[34] = tested on: WM2664; conditions: Homo sapiens, WM 266-4, 6 h, read-out: AZD5991 6h EC50
Experimental: as §1

[35] = tested on: Z-138; conditions: Homo sapiens, Z-138, 6 h, read-out: AZD5991 6h EC50
Experimental: as §1

SMILES: Cc1c2c(nn1C)CSCc1cc(n(C)n1)CSc1cc(c3ccccc3c1)OCCCc1c(C(=O)O)n(C)c3c-2c(Cl)ccc13 (atropisomer, axis not shown; (Ra)) [(Ra)-7]
- EC50 [1]: > 30000 nM
- EC50 [2]: 1780 nM
- EC50 [3]: 23300 nM
- EC50 [4]: 2440 nM
- EC50 [5]: 15400 nM
- EC50 [6]: > 30000 nM
- EC50 [7]: > 30000 nM
- EC50 [8]: 235 nM
- EC50 [9]: 656 nM
- EC50 [10]: 25900 nM
- EC50 [11]: 1420 nM
- EC50 [12]: 1570 nM
- EC50 [13]: 56 nM
- EC50 [14]: 144 nM
- EC50 [15]: 530 nM
- EC50 [16]: 882 nM
- EC50 [17]: 1290 nM
- EC50 [18]: 120 nM
- EC50 [19]: 3600 nM
- EC50 [20]: 472 nM
- EC50 [21]: 117 nM
- EC50 [22]: 188 nM
- EC50 [23]: > 30000 nM
- EC50 [24]: > 30000 nM
- EC50 [25]: > 30000 nM
- EC50 [26]: 266 nM
- EC50 [27]: 19 nM
- EC50 [28]: 56 nM
- EC50 [29]: > 30000 nM
- EC50 [30]: 125 nM
- EC50 [31]: > 30000 nM
- EC50 [32]: 24200 nM
- EC50 [33]: 172 nM
- EC50 [34]: > 30000 nM
- EC50 [35]: > 30000 nM

— paper PMC6297231 (Nature Communications, 2018)
